Assay results reported in patent US7867702B2, “Screen for novel protein inhibitors based upon engineered cell line containing an inducible overactivity gene and compensatory gene” (priority 2003, dated 2011).

B1: Domain I: N-terminal domain (amino acids 1 to 86) of wild type DnaA, biotin-tagged, expressed in SF58; poisons initiation complexes (protein, UniProt P03004 1-86, looked up, fragment)
chain: MSLSLWQQCLARLQDELPATEFSMWIRPLQAELSDNTLALYAPNRFVLDWVRDKYLNNINGLLTSFCGADAPQLRFEVGTKPVTQT
modifications: biotin tag
notes: N-terminal domain (amino acids 1 to 86) of wild type DnaA, biotin-tagged, expressed in SF58; poisons initiation complexes

Tests used:
[1] = test system: SF58; assay: Microtiter-format growth of SF58 with IPTG (assay validation, positive control); format: cell-based, E. coli; conditions: 0.31 mM IPTG and above vs 0 to 0.16 mM IPTG, 30° C., after 18 hours
Method: The first part of an assay transfer & validation procedure involves the reproduction of the results in microtiter format. […] All 48 replicate cultures of the same microtiter plate of FIG. 3 behaved similarly. […] In addition, after 18 h (6.4×10^4 s) the OD's of the induced cultures are well above controls.
A series of experiments were then performed to assess the signal as a function of the starting inoculum (i.e. the theoretical OD of the culture present in a microtiter well). The data (not shown) indicate that there is no significant difference in the SF58-IPTG growth curve if the inoculum is obtained by dilution of an overnight culture or of an actively growing 42° C.-culture. Consequently, the time for measuring the OD was set at 18 h, and the procedure used was to grow 5 μl of SF53 or SF58 in 30 ml glucose CAA medium (with […]) overnight at 42° C. until the OD600 was 1.2. The stock was diluted 1:100 in glucose CAA (without […]). 90 μl of this was dispensed into each well, with 10 μl of sample. […]
Following the procedure outlined above, a screening of 4240 microbial extracts was performed. Each 96-microtiter plate contained as controls four wells inoculated with SF53, four wells inoculated with SF58 and 8 wells inoculated with SF58 in the presence of 2.5 mM IPTG. […]

[2] = test system: strain SF58 (dnaA219, rnh::cam/pdnaA[1-86]-biotin); assay: Growth of strain SF58 at 30° C. with IPTG-induced Domain I of DnaA (flask cultures, OD450); format: cell-based, E. coli; conditions: for difference in OD450, induced vs uninduced culture: 10 parallel cultures
Method: The following experiments were performed to provide evidence that strain SF53 will survive when a drug has inactivated the DnaA protein. Such evidence can be obtained without a lead drug, by using production of the N-terminal domain (Domain I amino acids 1 to 86) of wild type DnaA. Domain I of DnaA is important for oligomerization and formation of proper initiation complexes. […] Strain SF53 was transformed with a plasmid carrying an IPTG-inducible gene encoding biotin-tagged Domain I (pBEX5BA-dnaA[1-86]-biotin), transformants checked, and the strain named SF58 (Table 1).
The growth of strain SF58 was tested at three different concentrations of IPTG. An overnight culture of strain SF58 grown at 42° C. was diluted 1:1000 in fresh ABB1 glucose CAA medium and split into five flasks. Culture nos. 1 to 4 were grown at 30° C. and culture no. 5 at 42° C. IPTG was added to culture no. 2, 3 and 4 at a concentration of 0.25, 0.5 and 1 mM, respectively, at the time of dilution. Growth curves were followed by measurement of OD450 for 8 hours. […] The OD450 was less than 0.03 at all time points.
The concentrations of Domain I present after 4 generations growth in the presence of the three different concentrations of IPTG, was assessed by Western blot. A ten-fold difference in OD450 between the culture grown without IPTG (culture no. 1) and the culture grown with 1 mM IPTG (culture no. 4) was obtained after about 10 hours. Thus, when performing a drug screen with the dnaA219rnh strain, a positive hit will be detected by a ten-fold difference in OD450 after about 10 hours in the presence of the drug.
To determine the robustness of the screen and also at which time, in a high throughput assay, it is optimal to measure the difference in OD450 we made the following measurements (FIG. 2). Essentially the same experiment as in FIG. 1 was performed, but OD450 was measured at only three time points, 20 h, 27 h and 48 h, in 10 different parallel cultures. A 20-40 fold difference was obtained after 20 h and after 27 h. After 48 h a background in the uninduced culture started to appear and the difference dropped to about 5 fold. Therefore, measurements of OD450 in high throughput screens should be performed after 10-30 hours of incubation.

Molecule	OD405 of induced SF58 cultures compared with controls [1]	difference in OD450 between culture grown without IPTG and culture grown with IPTG ([2]; 1 mM IPTG, 30° C., after about 10 hours)	growth rate of SF58 cultures grown at 30° C. with IPTG ([2]; IPTG 0.25, 0.5 and 1 mM, 30° C., OD450 followed for 8 hours)	difference in OD450, induced vs uninduced culture ([2]; after 20 h, 30° C.)	difference in OD450, induced vs uninduced culture ([2]; after 27 h, 30° C.)	difference in OD450, induced vs uninduced culture ([2]; after 48 h, 30° C.)	growth of the strain at 30° C. ([2]; induction of Domain I by IPTG in SF58, 30° C.)
CC(C)S[C@@H]1O[C@H](CO)[C@H](O)[C@H](O)[C@H]1O [IPTG]	significantly higher than controls	ten-fold	increasing growth rates with increasing concentration of IPTG	20-40 fold	20-40 fold	about 5 fold	
B1							restored
